# Laboratory results from patent US20090227503A1, “PARATHYROID HORMONE TREATMENT FOR ENHANCED ALLOGRAFT AND TISSUE-ENGINEERED RECONSTRUCTION OF BONE DEFECTS” (UNIVERSITY OF ROCHESTER, priority 2008, published 2009).
# Tests used:
# [1] = system: intact contralateral femurs; assay: Micro-CT of intact contralateral femurs (Example 4); format: in vivo, mice; settings: 6 weeks
# [2] = system: grafted femurs; assay: Histology of grafted femurs (Example 4); format: in vivo, mice
# Description: A second cohort of 16 animals underwent the same surgery with sacrifice of 8 animals at 4 weeks and 8 animals at 6 weeks post-surgery to evaluate the degree of vascularization of the graft and callus region using vascular profusion as described previously (Duvall 2004). Half of the animals were treated with PTH, and the other half with saline. After micro-CT imaging for vascular analysis, specimens were processed for histology. Mid-sagittal sections were stained with alcian blue, hematoxylin, eosin and orange G. Micro-CT images were manually resliced using NIH ImageJ software in the same plane as the histology sections to compare the imaging modalities (data not shown).
# [3] = PTH contralateral femur, mean, N = 8
structure (smiles),measurement,setting,value
"CC[C@H](C)[C@H](NC(=O)[C@H](CCC(=O)O)NC(=O)[C@H](CO)NC(=O)[C@@H](NC(=O)[C@@H](N)CO)C(C)C)C(=O)N[C@@H](CCC(N)=O)C(=O)N[C@@H](CC(C)C)C(=O)N[C@@H](CCSC)C(=O)N[C@@H](Cc1cnc[nH]1)C(=O)N[C@@H](CC(N)=O)C(=O)N[C@@H](CC(C)C)C(=O)NCC(=O)N[C@@H](CCCCN)C(=O)N[C@@H](Cc1cnc[nH]1)C(=O)N[C@@H](CC(C)C)C(=O)N[C@@H](CC(N)=O)C(=O)N[C@@H](CO)C(=O)N[C@@H](CCSC)C(=O)N[C@@H](CCC(=O)O)C(=O)N[C@@H](CCCN=C(N)N)C(=O)N[C@H](C(=O)N[C@@H](CCC(=O)O)C(=O)N[C@@H](Cc1c[nH]c2ccccc12)C(=O)N[C@@H](CC(C)C)C(=O)N[C@@H](CCCN=C(N)N)C(=O)N[C@@H](CCCCN)C(=O)N[C@@H](CCCCN)C(=O)N[C@@H](CC(C)C)C(=O)N[C@@H](CCC(N)=O)C(=O)N[C@@H](CC(=O)O)C(=O)N[C@H](C(=O)N[C@@H](Cc1cnc[nH]1)C(=O)N[C@@H](CC(N)=O)C(=O)N[C@@H](Cc1ccccc1)C(=O)O)C(C)C)C(C)C [PTH, PTH (1-34)]",contralateral intact femur's diaphyseal BMCPTH:BMCSaline,[1],1.17
same,A-P Periosteal Diameter,[1]; [3],1.30 mm
same,Cortical Bone Density,[1]; [3],1179 mgHA/cc
same,Cortical Thickness,[1]; [3],0.199 mm
same,Cross-Sectional Area,[1]; [3],0.82 mm²
same,M-L Periosteal Diameter,[1]; [3],1.85 mm
same,Polar Moment of Inertia,[1]; [3],0.36 mm^4
same,osteoclastic graft resorption,[2]; PTH treatment for 6 weeks,did not stimulate osteoclastic graft resorption
same,cartilage formation at the site of bone injury,[2]; persisted through 4 weeks after surgery,Cartilage formation was increased
